Test results: ChEMBL document CHEMBL1201862, “PubChem BioAssay data set” (2004)
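A five-concentration, 48-hour dose response in 96-well plates underlies each endpoint, interpolated linearly between surrounding concentrations. GI50: concentration for 50% inhibition of growth.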 The source made the active and inactive calls. No stated cut-off is given here; in the data, active = GI50 up to about 1.1 µM and inactive = higher.

How the values were obtained:
Experiment in all cases: NCI tumour cell line growth inhibition, 48 h
SN12C = tested on: SN12C
TK-10 = tested on: TK-10
UACC-257 = tested on: UACC-257
HCC 2998 = tested on: HCC 2998
HCT-15 = tested on: HCT-15
KM12 = tested on: KM12
NCI-H226 = tested on: NCI-H226
SNB-75 = tested on: SNB-75
SK-MEL-5 = tested on: SK-MEL-5
NCI-H522 = tested on: NCI-H522
LOX IMVI = tested on: LOX IMVI
SW-620 = tested on: SW-620
Malme-3M = tested on: Malme-3M
A498 = tested on: A498
HT-29 = tested on: HT-29

Row | Compound | GI50 (SN12C) | GI50 (TK-10) | GI50 (UACC-257) | GI50 (HCC 2998) | GI50 (HCT-15) [µM] | GI50 (KM12) | GI50 (NCI-H226) | GI50 (SNB-75) | GI50 (SK-MEL-5) | GI50 (NCI-H522) | GI50 (LOX IMVI) | GI50 (SW-620) | GI50 (Malme-3M) | GI50 (A498) | GI50 (HT-29)
1 | O=C1C2=C(SCCS2)C(=O)c2ccccc21 | 1.95 µM (inactive) | 1.84 µM (inactive) | 1.95 µM (inactive) | 1.65 µM (inactive) | 1.7 | 1.77 µM (inactive) | 2.08 µM (inactive) | 1.67 µM (inactive) | 1.69 µM (inactive) | 1.76 µM (inactive) | 0.902 µM (active) | 2.11 µM (inactive) | 1.81 µM (inactive) | 2.03 µM (inactive) | 2.18 µM (inactive)
2 | O=C(N/N=C/c1cc(Br)ccc1O)N/N=C/c1cc(Br)ccc1O | 5.35 µM (inactive) | 54.6 µM (inactive) | 4.3 µM (inactive) | – | – | 5.35 µM (inactive) | 2.02 µM (inactive) | – | 2.49 µM (inactive) | 1.99 µM (inactive) | 5.85 µM (inactive) | 1.73 µM (inactive) | 3.64 µM (inactive) | > 100 µM (inactive) | 5.97 µM (inactive)
3 | COc1ccc(/C=N\N2C(=O)Cc3ccccc32)cc1 | – | 59.6 µM (inactive) | > 100 µM (inactive) | 25.4 µM (inactive) | > 100 | > 100 µM (inactive) | > 100 µM (inactive) | 17.9 µM (inactive) | > 100 µM (inactive) | – | > 100 µM (inactive) | > 100 µM (inactive) | > 100 µM (inactive) | > 100 µM (inactive) | > 100 µM (inactive)
4 | CCOC(=O)CCC(NC(=O)c1ccc(NC(OC)c2nc3cc(C(F)(F)F)ccc3nc2-c2ccccc2)cc1)C(=O)OCC (stereo unspecified) | 14.5 µM (inactive) | 21 µM (inactive) | 16.3 µM (inactive) | 15.8 µM (inactive) | 14.3 | 6.24 µM (inactive) | 18.6 µM (inactive) | 19.9 µM (inactive) | 16.3 µM (inactive) | 12.3 µM (inactive) | 10.4 µM (inactive) | 7.62 µM (inactive) | 17 µM (inactive) | 17.3 µM (inactive) | 7.93 µM (inactive)
5 | CSc1ccc(Cc2cc(C(C)(C)C)cc(C(C)(C)C)c2O)cc1 | 15.1 µM (inactive) | 12.9 µM (inactive) | 14.7 µM (inactive) | 18.5 µM (inactive) | 14 | 11 µM (inactive) | – | 16 µM (inactive) | 15.6 µM (inactive) | – | 10.4 µM (inactive) | 16.1 µM (inactive) | 15.2 µM (inactive) | 15.6 µM (inactive) | 13.8 µM (inactive)
6 | N#Cc1ccc(C(C2C(=O)NC(=O)NC2=O)C2C(=O)NC(=O)NC2=O)cc1 | > 100 µM (inactive) | > 100 µM (inactive) | > 100 µM (inactive) | > 100 µM (inactive) | > 100 | > 100 µM (inactive) | > 100 µM (inactive) | – | > 100 µM (inactive) | > 100 µM (inactive) | > 100 µM (inactive) | > 100 µM (inactive) | > 100 µM (inactive) | – | > 100 µM (inactive)
7 | CC(C)(C)C1=Cc2cc3cc(C(C)(C)C)[nH]c(=O)c3cc2S(=O)(=O)N1 | 42.7 µM (inactive) | 29.6 µM (inactive) | 25.1 µM (inactive) | – | – | 30.6 µM (inactive) | 19.9 µM (inactive) | 37.8 µM (inactive) | – | 15.3 µM (inactive) | – | 21 µM (inactive) | 22.4 µM (inactive) | 53.2 µM (inactive) | 22.9 µM (inactive)
8 | COC(=O)/C(=N\Nc1nnc(C)n1N)C(C#N)c1ccc(Cl)cc1 (stereo unspecified) | > 100 µM (inactive) | > 100 µM (inactive) | > 100 µM (inactive) | > 100 µM (inactive) | > 100 | > 100 µM (inactive) | > 100 µM (inactive) | > 100 µM (inactive) | – | – | > 100 µM (inactive) | > 100 µM (inactive) | > 100 µM (inactive) | > 100 µM (inactive) | > 100 µM (inactive)
9 | O=C(CCC(=O)Nc1ccc(Cl)cc1)CC(=O)c1ccc(F)cc1 | > 100 µM (inactive) | > 100 µM (inactive) | > 100 µM (inactive) | > 100 µM (inactive) | > 100 | > 100 µM (inactive) | > 100 µM (inactive) | > 100 µM (inactive) | – | > 100 µM (inactive) | > 100 µM (inactive) | > 100 µM (inactive) | > 100 µM (inactive) | – | > 100 µM (inactive)
10 | O=C(O)CCc1nn2c(nc1=O)sc1ccc3ccccc3c12 | > 100 µM (inactive) | > 100 µM (inactive) | > 100 µM (inactive) | > 100 µM (inactive) | > 100 | – | > 100 µM (inactive) | > 100 µM (inactive) | > 100 µM (inactive) | – | > 100 µM (inactive) | > 100 µM (inactive) | > 100 µM (inactive) | – | > 100 µM (inactive)
11 | CCOC(=O)C1=C(OC(OCC)C(CC)[Se]c2ccccc2)CCC1 (stereo unspecified) | 17.1 µM (inactive) | 82 µM (inactive) | 28 µM (inactive) | 15.2 µM (inactive) | 14.7 | 39.4 µM (inactive) | 18.3 µM (inactive) | 25.3 µM (inactive) | 12.6 µM (inactive) | 15.6 µM (inactive) | 7.31 µM (inactive) | – | 4.58 µM (inactive) | 41.2 µM (inactive) | 25.1 µM (inactive)
12 | C=CCN(N=O)C(=O)N(CCCCC(NC(C)=O)C(=O)NCc1ccccc1)Cc1ccccc1 (stereo unspecified) | 41.5 µM (inactive) | 35.1 µM (inactive) | 36.1 µM (inactive) | – | 39.9 | 31.6 µM (inactive) | 25.4 µM (inactive) | 38.4 µM (inactive) | 15.5 µM (inactive) | 15.1 µM (inactive) | 21.7 µM (inactive) | 33.8 µM (inactive) | 20.2 µM (inactive) | 42.9 µM (inactive) | 19.5 µM (inactive)
13 | O=C1CC[C@H]2CNC(=O)C[C@H]2C1 | > 100 µM (inactive) | > 100 µM (inactive) | > 100 µM (inactive) | > 100 µM (inactive) | > 100 | > 100 µM (inactive) | – | > 100 µM (inactive) | > 100 µM (inactive) | > 100 µM (inactive) | > 100 µM (inactive) | > 100 µM (inactive) | > 100 µM (inactive) | > 100 µM (inactive) | > 100 µM (inactive)
14 | Cc1cccc2c(=O)cc(-c3ccccc3)[nH]c12 | 5.42 µM (inactive) | > 100 µM (inactive) | 5.22 µM (inactive) | 4.39 µM (inactive) | 4.23 | – | 20.2 µM (inactive) | 1.73 µM (inactive) | 2.36 µM (inactive) | – | 4.58 µM (inactive) | 2.6 µM (inactive) | 4.09 µM (inactive) | 5.3 µM (inactive) | 3.1 µM (inactive)
15 | O=C1c2ccccc2OP(=O)(OCC(F)(F)F)OC1(C(F)(F)F)C(F)(F)F (stereo unspecified) | > 100 µM (inactive) | > 100 µM (inactive) | > 100 µM (inactive) | > 100 µM (inactive) | > 100 | > 100 µM (inactive) | > 100 µM (inactive) | > 100 µM (inactive) | > 100 µM (inactive) | > 100 µM (inactive) | > 100 µM (inactive) | > 100 µM (inactive) | – | > 100 µM (inactive) | > 100 µM (inactive)
16 | CCOC(=O)/C(C(=O)c1ccccc1)=C1\N[C@H](C(=O)OCC)CS1 | > 100 µM (inactive) | – | > 100 µM (inactive) | > 100 µM (inactive) | > 100 | > 100 µM (inactive) | > 100 µM (inactive) | > 100 µM (inactive) | 92.3 µM (inactive) | > 100 µM (inactive) | > 100 µM (inactive) | > 100 µM (inactive) | > 100 µM (inactive) | – | > 100 µM (inactive)
17 | Cc1ccc(S(=O)(=O)N/N=C(\CCN2CCCC2)CC(c2ccccc2)c2c(O)c3ccccc3oc2=O)cc1 (stereo unspecified) | > 100 µM (inactive) | > 100 µM (inactive) | > 100 µM (inactive) | – | > 100 | > 100 µM (inactive) | > 100 µM (inactive) | > 100 µM (inactive) | > 100 µM (inactive) | 99.5 µM (inactive) | > 100 µM (inactive) | 49.5 µM (inactive) | > 100 µM (inactive) | > 100 µM (inactive) | > 100 µM (inactive)
18 | COc1ccc(C(C#N)Cc2cc(OC)c(OC)c(OC)c2)cc1 (stereo unspecified) | 41.3 µM (inactive) | 37.6 µM (inactive) | 50.5 µM (inactive) | – | 17.8 | 24 µM (inactive) | 94.2 µM (inactive) | – | 17.6 µM (inactive) | 22.4 µM (inactive) | 28.6 µM (inactive) | 15.7 µM (inactive) | 43.1 µM (inactive) | 17.4 µM (inactive) | 33 µM (inactive)
19 | CCOC(=O)NC(=O)c1cn(C2OC(COC(=O)CCCCCCCCC(=O)OCC3OC(n4cc(C(=O)NC(=O)OCC)c(=O)[nH]c4=O)C(O)C3O)C(O)C2O)c(=O)[nH]c1=O (stereo unspecified) | > 100 µM (inactive) | > 100 µM (inactive) | > 100 µM (inactive) | > 100 µM (inactive) | > 100 | > 100 µM (inactive) | > 100 µM (inactive) | > 100 µM (inactive) | > 100 µM (inactive) | – | > 100 µM (inactive) | > 100 µM (inactive) | > 100 µM (inactive) | > 100 µM (inactive) | > 100 µM (inactive)
20 | COC1OC(OC)C2C(c3c(C)cc(C)cc3C)=NOC12 (stereo unspecified) | – | > 100 µM (inactive) | > 100 µM (inactive) | > 100 µM (inactive) | > 100 | > 100 µM (inactive) | > 100 µM (inactive) | > 100 µM (inactive) | > 100 µM (inactive) | > 100 µM (inactive) | > 100 µM (inactive) | > 100 µM (inactive) | > 100 µM (inactive) | – | > 100 µM (inactive)
